Values of other authors, collected in patent US11839662B2, “Compositions for neuromodulation of mosquito feeding behavior and uses thereof” (University of Central Florida Research Foundation, Inc., priority 2017, dated 2023).

SMILES | effect on oviposition and larval hatch rate (Anopheles gambiae) | repellant and larvicidal effect (mosquitoes)
Clc1cccc(Cl)c1N=C1NCCN1 [Clonidine] | decrease oviposition and larval hatch rate | 
CC1(C)CCC[C@]2(C)[C@@H](C=O)C(C=O)=CC[C@@H]12 [Polygodial] |  | repellant ability in mosquitoes and act as a larvacide
